The source of these data is patent US20260028352A1, “MACROCYCLIC IMIDAZO [1,2-B] PYRIDAZINE DERIVATIVE, PREPARATION METHOD THEREFOR, AND USE THEREOF” (SUZHOU LANGRUI BIOPHARMACEUTICAL CO., LTD., priority 2022, published 2026).

Read-outs that look alike come from different tables or passages of the source.

The conditions of data set [1]: ether bond.
Another data set deals with TRKA^WT kinase (Homo sapiens (Human), UniProt P04629). Nature of the data set: Inhibitory activity against TRKA WT kinase (Caliper mobility shift). The data set is classed as biochemical. To be noted: in vitro kinase assay. The procedure, abridged: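 Kinase preincubated 10 min at room temperature with compound (10-point 3-fold series from 1000 nM), then reaction started with ATP and Kinase Substrate 22. Substrate conversion read by Caliper mobility shift; IC50 from variable-slope log(inhibitor)–response fit of % inhibition versus no-enzyme and no-compound controls.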

Another data set deals with TRKA^F589L kinase (Homo sapiens (Human), UniProt P04629, F589L). Nature of the data set: Inhibitory activity against TRKA(F589L) kinase (Caliper mobility shift). The data set is classed as biochemical. Conditions: in vitro kinase assay. The procedure:
Kinase Assay Process: 1× Kinase buffer was prepared. […] The compounds were serially diluted into 10 concentrations ([…], 0.15, and 0.05 nM) using a Precision 3-fold dilution method. By using the Echo550 liquid handler, 250 nL of the 100-fold final concentration compound was transferred to an OptiPlate-384F plate. a 2.5× final concentration kinase solution was prepared using 1× Kinase buffer. 10 μL of the 2.5× final concentration kinase solution was added to the compound wells and the positive control wells, and 10 μL of 1× Kinase buffer was added to the negative control wells. The plate was centrifuged at 1000 rpm for 30 seconds, vortexed for mixing, and then incubated at room temperature for 10 minutes. A mixture of 5/3× final concentration of ATP and Kinase Substrate 22 was prepared using 1× Kinase buffer. 15 μL of the mixture of the 5/3× final concentration ATP and the substrate was added to initiate the reaction, the 384-well plate was centrifuged at 1000 rpm for 30 seconds, vortexed for mixing, and incubated at room temperature for the required time. 30 μL of the termination solution was added to stop the kinase reaction, the plate was centrifuged at 1000 rpm for 30 seconds, and vortexed for mixing. The conversion rate was measured using the Caliper EZ Reader.
Data Analysis: the inhibition rate was calculated as follows:
% Inhibition=(Conversion %_max−conversion %_sample)÷(Conversion %_max−conversion %_min)×100
Conversion %_sample is the conversion rate reading for the sample; Conversion %_min is the average value of the negative control wells, representing the conversion rate for wells without enzyme activity: Conversion %_max is the average value of the positive control wells, representing the conversion rate for wells without compound inhibition. A dose-response curve was fitted using the log concentration of the compound as the X-axis and the percentage inhibition as the Y-axis. The log(inhibitor) vs. response-variable slope of the GraphPad Prism 5 software was used to fit the dose-response curve, and the IC50 value for each compound was obtained. The calculation formula is:
Y=Bottom+(Top−Bottom)/(1+10^((Log IC50−X)*HillSlope)).
wherein X represents the concentration of the compound to be tested; Y represents the inhibition rate at the concentration X: Top refers to the maximum response: Bottom refers to the baseline response; HillSlope refers to the slope of the curve (i.e., the gradient).

In data set [2] the test system is Ba/F3-TPM3-NTRK1-G667C cells. Nature of the data set: Growth inhibition of Ba/F3-TPM3-NTRK1-G667C cells (Cell Titer-Glo). In kind it is cell-based. Conditions: 72 hours, CTG; read-out: inhibitory activity IC50 Ba/F3-TPM3-NTRK1-G667C. An outline of the steps: (§1)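 Ba/F3 cells were exposed for 72 hours to serially DMSO-diluted compound at a top final concentration of 10 μM. Viability was read by Cell Titer-Glo luminescence after the plate equilibrated 30 min at room temperature and was then shaken 1 hour in the dark at room temperature.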

For data set [3], the system named is Ba/F3-TPM3-NTRK1-G595R cells. Nature of the data set: Growth inhibition of Ba/F3-TPM3-NTRK1-G595R cells (Cell Titer-Glo). The data set is classed as cell-based. Conditions: 72 hours, CTG; read-out: inhibitory activity IC50 Ba/F3-TPM3-NTRK1-G595R. The procedure, abridged:
as §1
A general note: Cellular ATP, detected with luciferase, serves as a proxy for viable cell number.

Data set [4] has as its system Ba/F3-TPM3-NTRK1-WT cells. Nature of the data set: Growth inhibition of Ba/F3-TPM3-NTRK1-WT cells (Cell Titer-Glo). The data set is classed as cell-based. Conditions: 72 hours, CTG; read-out: inhibitory activity IC50 Ba/F3-TPM3-NTRK1-WT. An outline of the steps:
as §1

Data set [5] relates to Ba/F3-TPM3-NTRK1-WT subcutaneous xenograft. Nature of the data set: Efficacy in Ba/F3-TPM3-NTRK1-WT subcutaneous xenograft tumor model. In kind it is in vivo, NOD-SCID mice. As for the experimental part:
Cell culture: Ba/F3-TPM3-NTRK1-WT cells were cultured in RPMI 1640 medium containing 10% FBS. Ba/F3-TPM3-NTRK1-WT cells in logarithmic growth phase were collected, the required total number of cells was calculated, and the cells were resuspended in a suitable volume of PBS mixture (PBS:Matrigel=1:1 (v/v)) with a cell suspension concentration of 5×106/0.1 mL for subcutaneous inoculation on the right side of NOD-SCID mice.
Method: On Day 0, all animals were subcutaneously inoculated with 0.1 mL (5×10^6 Ba/F3-TPM3-NTRK1-WT cells) of cell suspension (PBS:Matrigel=1:1, VN) on the right back. After the tumor growed to an average volume of 178.3 mm3, the mice were grouped and administrated. The average tumor volume of the enrolled animals is 178.3 mm^3. The mice were divided into two groups. Group-1 (Vehicle) and Group-2 (10 mg/kg, I-52). Each group consisted of 6 animals. All groups were administered orally by gavage with a frequency of BID, for a total of 29 days.
Tumor volume inhibition rate TGITV (%): TGI %=(1−ΔT/ΔC)×100%, wherein ΔC is the tumor volume Ct−C0 of the control group, C0 is the average tumor volume of the control group at the time of grouping, Ct is the average tumor volume of the control group after treatment, ΔT is the tumor volume Tt−T0 of the treatment group, T0 is the average tumor volume of the […] after treatment.
Pharmacological activity was evaluated based on tumor suppression rate (TGITV), and tolerance was evaluated based on changes in animal weight and mortality.

Data set [6] relates to Ba/F3-TPM3-NTRK1-G667C subcutaneous xenograft. Nature of the data set: Efficacy in Ba/F3-TPM3-NTRK1-G667C subcutaneous xenograft tumor model. In kind it is in vivo, NOD-SCID mice. Conditions: 10 mg/kg oral BID. As for the experimental part: Cell Culture: Ba/F3-TPM3-NTRK1-G667C cells were cultured in RPMI 1640 medium containing 10% FBS. Log-phase cells were collected, and the total number of cells required was calculated. Cells were resuspended in an appropriate volume of PBS mixture solution (PBS:Matrigel=1:1, v/v) at a concentration of 5×10^6 cells/0.1 mL for subcutaneous inoculation into the right flank of NOD-SCID mice.
Method: at Day 0, all animals were subcutaneously inoculated with 0.1 mL (5×10^6 cells) of Ba/F3-TPM3-NTRK1-G667C cell suspension (PBS:Matrigel=1:1, v/v) on the right flank. When the tumors reached an average volume of 197.2 mm^3, dosing and grouping began. […] The animals were divided into two groups: Group 1: Vehicle control; Group 2: 10 mg/kg of compound 1-52. Each group contained six mice. All groups were administered orally via gavage twice daily (BID) for 29 days.
Tumor Volume Inhibition Rate TGITV(%): TGI %=(1−ΔT/ΔC)×100%; Where: ΔC is the tumor volume Ct−C0 of the control group, C0 is the average tumor volume of the control group at the time of grouping, Ct is the average tumor volume of the control group after treatment, ΔT is the tumor volume Tt−T0 of the treatment group, To is the average tumor volume of the […] after treatment.
Pharmacological activity was evacuated based on tumor suppression rate (TGITV), and tolerance was assessed based on changes in animal weight and mortality.

Sequence of TRKA^WT kinase (P04629 33-796): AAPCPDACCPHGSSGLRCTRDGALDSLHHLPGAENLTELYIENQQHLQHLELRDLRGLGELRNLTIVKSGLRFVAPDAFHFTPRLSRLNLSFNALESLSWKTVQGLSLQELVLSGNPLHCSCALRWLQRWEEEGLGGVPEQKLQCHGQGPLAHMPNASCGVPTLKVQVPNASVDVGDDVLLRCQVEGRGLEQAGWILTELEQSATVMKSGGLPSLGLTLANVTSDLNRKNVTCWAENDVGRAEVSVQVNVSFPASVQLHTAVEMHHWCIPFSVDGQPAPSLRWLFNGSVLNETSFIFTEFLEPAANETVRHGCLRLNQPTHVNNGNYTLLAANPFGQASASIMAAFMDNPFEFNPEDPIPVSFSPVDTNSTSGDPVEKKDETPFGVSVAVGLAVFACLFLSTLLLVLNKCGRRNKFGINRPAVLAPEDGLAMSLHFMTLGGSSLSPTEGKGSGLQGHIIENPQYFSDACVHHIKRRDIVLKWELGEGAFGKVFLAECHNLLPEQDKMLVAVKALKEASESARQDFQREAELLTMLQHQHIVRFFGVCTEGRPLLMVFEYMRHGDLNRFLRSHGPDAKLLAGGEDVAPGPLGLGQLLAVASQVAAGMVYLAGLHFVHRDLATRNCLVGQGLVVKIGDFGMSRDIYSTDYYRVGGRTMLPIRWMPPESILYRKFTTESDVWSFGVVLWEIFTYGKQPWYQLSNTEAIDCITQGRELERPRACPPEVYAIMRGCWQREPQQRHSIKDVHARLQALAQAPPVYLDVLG
Sequence of TRKA^F589L kinase (P04629 33-796 F589L): as the sequence (P04629 33-796) above, with F557L counted along it

For `c1ccc2c(c1)CNc1ccc3ncc(n3n1)-c1cc(ccn1)CCO2` [Example I-8, (E)-6-oxa-3-aza-2(3,6)-imidazo[1,2-b]pyridazina-1(2,4)-pyridina-5(1,2)-benzenacyclooctaphane], in data set [1] (from OCCc1ccnc(-c2cnc3ccc(NCc4ccccc4O)nn23)c1, 14-membered ring, PPh3/DIAD, THF, 16.6 mM, 60.0 °C, 2.0 h), the ring closure, isolated yield worked out at 34%. Further, the IC50 on TRKA^WT kinase is 2.46 nM; on TRKA^F589L kinase, less than 5 nM; in data set [2], 562 nM; in data set [3], 562 nM; in data set [4], 3.4 nM.
`CC1Nc2ccc3ncc(n3n2)-c2cc(ccn2)OCc2ncc(F)cc21` (stereo not shown) [Example I-12, (E)-5^5-fluoro-6-methyl-3-oxa-7-aza-1(3,6)-imidazo[1,2-b]pyridazina-2(2,4), 5(2,3)-dipyridinacycloheptaphane] gave a ring closure, isolated yield in data set [1] (from CC(Nc1ccc2ncc(-c3cc(O)ccn3)n2n1)c1cc(F)cnc1CO, 13-membered ring, SOCl2, then K2CO3, DCM/DMF, then DMF (DCM evaporated), 15.7 mM, 90.0 °C, 2.0 h, 2 steps) of 22.6%. Further, in data set [2], the IC50 was less than 100 nM.
On to `c1ccc2c(c1)CNc1ccc3ncc(n3n1)-c1cc(ccn1)CO2` [Example I-6, (E)-4-oxa-7-aza-1(3,6)-imidazo[1,2-b]pyridazina-2(2,4)-pyridina-5(1,2)-benzenacycloheptaphane], for which the ring closure, isolated yield in data set [1] (from OCc1ccnc(-c2cnc3ccc(NCc4ccccc4O)nn23)c1, 13-membered ring, SOCl2, K2CO3, DCM/DMF, 22.8 mM, 90.0 °C, 2.0 h, 2 steps) came out at 13.6%. For the same compound, the IC50 worked out at 2.76 nM at TRKA^WT kinase; 6.1 nM on TRKA^F589L kinase; 526 nM in data set [2]; 527 nM in data set [3]; 18 nM in data set [4].
Take `CC1Nc2ccc3ncc(n3n2)-c2cc(ccn2)COc2ncccc21` (stereo not shown) [Example I-4, (E)-6-methyl-4-oxa-7-aza-1(3,6)-imidazo[1,2-b]pyridazina-2(2,4), 5(2,3)-dipyridinacycloheptaphane]: the ring closure, isolated yield in data set [1] (from CC(Nc1ccc2ncc(-c3cc(CO)ccn3)n2n1)c1cccnc1O, 13-membered ring, SOCl2, K2CO3, DCM/DMF, 22.0 mM, 90.0 °C, 2.0 h, 2 steps) amounted to 30.2%. The IC50 is less than 3 nM at TRKA^WT kinase, 5.8 nM at TRKA^F589L kinase and less than 100 nM in data set [2].
On to `Fc1cnc2c(c1)[C@H]1C[C@H](F)CN1c1ccc3ncc(n3n1)-c1cc(ccn1)CO2` [Example I-52, (14bR,16S,E)-13,16-difluoro-14b,15,16,17-tetrahydro-9H-1,19-etheno-4,8-(metheno)imidazo[1,5-h]pyrido[2,3-b]pyrrolo[2,1-d][1]oxa[5,7,8,11]tetraazacyclopentadecine], for which the IC50 in data set [2] amounted to 0.88 nM; in data set [3], 0.3 nM; in data set [4], 0.02 nM. The “Average Tumor Volume” value is 182.5 mm^3 in data set [5] (Day 4, 10 mg/kg oral BID); 192.7 mm^3 in data set [5] (Day 6, 10 mg/kg oral BID); 176.5 mm^3 in data set [5] (Day 8, 10 mg/kg oral BID); 146.3 mm^3 in data set [5] (Day 10, 10 mg/kg oral BID); 113.1 mm^3 in data set [5] (Day 12, 10 mg/kg oral BID); 74.4 mm^3 in data set [5] (Day 14, 10 mg/kg oral BID). The “Average Tumor Volume” value is given as 67.9 mm^3 in data set [5] (Day 15, 10 mg/kg oral BID); 60.1 mm^3 in data set [5] (Day 17, 10 mg/kg oral BID); 32.8 mm^3 in data set [5] (Day 19, 10 mg/kg oral BID); 0.0 mm^3 in data set [5] (Day 21, 10 mg/kg oral BID); 0.0 mm^3 in data set [5] (Day 23, 10 mg/kg oral BID); 0.0 mm^3 in data set [5] (Day 25, 10 mg/kg oral BID). The “Average Tumor Volume” value in data set [5] (Day 27, 10 mg/kg oral BID) worked out at 0.0 mm^3; in data set [5] (Day 29, 10 mg/kg oral BID (Table 7)) it was 0.0 mm^3. For the same compound, the TGITV was determined as 112% in data set [5] (Day 29, 10 mg/kg oral BID) and 84% in data set [6] (Day 29). Further, the “Tumor Regression Rate” value in data set [5] (Day 29, 10 mg/kg oral BID) was 100%. Also, the “Tumor Volume (average)” value turned out to be 0.0 mm^3 in data set [5] (Day 29, 10 mg/kg oral BID) and 636.5 mm^3 in data set [6] (Day 29). The “Average Body Weight” value in data set [6] (Day 2) stood at 19.1 g; in data set [6] (Day 7), 20.9 g; in data set [6] (Day 9) it was 21.0 g; in data set [6] (Day 11) it was 21.8 g; in data set [6] (Day 13) it was 22.0 g; in data set [6] (Day 15), 22.8 g. The “Average Body Weight” value in data set [6] (Day 17) is 23.0 g; in data set [6] (Day 19), 23.7 g; in data set [6] (Day 21) it was 23.3 g; in data set [6] (Day 23), 24.3 g; in data set [6] (Day 25), 24.7 g; in data set [6] (Day 27) it was 25.3 g. In data set [6] (Day 29), the “Average Body Weight” value came to 24.6 g. Besides, the “Relative Tumor Volume (average)” value in data set [6] (Day 29) is on record as 308.6%.
In data set [1] (14-membered ring, PPh3/DIAD, THF, 15.8 mM, 60.0 °C), “(E)-4-methyl-6-oxa-3-aza-2(3,6)-imidazo [1,2-b]pyridazina-1(2,4)-pyridina-5(1,2)-benzenacyclooctaphane” gave a ring closure, isolated yield of 18.4%.
